Source: US10519211B2, “Compounds as peptidic GLP1/glucagon/GIP receptor agonists” (SANOFI, priority 2016, dated 2019)
Numbered stars: 1 amine (or outer) side, 2 acyl side, 3 side chain; on linkers, the order of the positions; unused ones are H or OH. Square brackets hold non-standard residues; d marks the D form. Side chains are listed from the residue outwards. Peptide text beside a SMILES is read from it. * marks the point of attachment. Adipoyl(4R-palmitoylamino) = CCCCCCCCCCCCCCCC(=O)N[C@H](CCC(=O)*)CC(=O)O; γGlu = O=C(O)[C@H](CCC(=O)[*:2])N[*:1]; Palmitoyl = CCCCCCCCCCCCCCCC(=O)*; AEEA = NCCOCCOCC(=O)O; Aib = CC(C)(N)C(=O)O

How the values were obtained:
[1] = Chemical stability assessment (UPLC-UV, relative purity loss); type: physicochemical; conditions: 1 mg/ml, 25 mM acetate buffer pH 4.5 with m-cresol (buffer system A)
Protocol: Prior to the chemical stability measurement of a peptide batch, its purity was determined through UPLC/MS. For stability testing the target concentration was 1 mg pure compound/ml. Therefore solutions from solid samples were prepared in a buffer system with a concentration of 1 mg/mL compound based on the previously determined % purity:
Chemical stability buffer system A) 25 mM acetate buffer pH4.5, 3 mg/mL L-Methionine, 2.7 mg/mL m-cresol, 18 mg/mL Glycerol 85%
Peptide solutions were filtered through […] pore size and filled into aliquots under aseptic conditions. At starting point UPLC-UV was performed by injection of 2 μl of the undiluted sample.
For chemical stability testing, aliquots were stored for 28 days at Sand 40° C. After this time course the samples were centrifuged for 15 min at 2500 RCF. Then 2 μl of the undiluted supernatant were analysed with UPLC-UV.
The chemical stability was rated through the relative loss of purity calculated by the equation: [(purity at starting point)−(purity after 28 days at X° C.)]/(purity at starting point)]*100%
The purity is calculated as [(peak area peptide)/(total peak area)]*100%
Peptide samples were prepared in Chemical stability buffer system A and chemical stability was assessed as described in Methods.

[2] = Thioflavin T (ThT) assay for physical stability (fibrillation); type: physicochemical; conditions: 3 mg/ml, 100 mM acetate pH 4.5 with m-cresol, shaking at 37° C.
Protocol: Investigations were carried out to determine fibrillation tendencies under stress conditions by shaking at 37° C. within Fluoroskan Ascent FL.
For the tests in Fluoroskan Ascent FL, 200 μL sample were placed into a 96 well mictrotiter plate PS, flat bottom, Greiner Fluotrac No. 655076. Plates were sealed with Scotch Tape (Quiagen). Samples were stressed by continuous cycles of 10 s shaking at 960 rpm and 50 s rest period at 37° C. The kinetic was monitored by measuring fluorescence intensity every 20 minutes.
Peptides were diluted in a buffer system to a final concentration of 3 mg/ml. 20 μL of a 10.1 mM ThT solution in H2O were added to 2 mL of peptide solution to receive a final concentration of 100 μM ThT. For each sample eight replicates were tested.
Tht buffer system A) 100 mM Acetate pH 4.5 including m-cresol (100 mM Natriumacetat trihydrat, pH adjustment using 2N CH3COOH, 2.7 mg/mL m-cresol) Tht buffer system B) 100 mM citrate buffer pH 6.0
Lag time in hours in Thioflavin T (ThT) assay of peptide samples was determined in Tht buffer system A as described in Methods.

[3] = Solubility assessment (UPLC-UV); type: physicochemical; conditions: acetate buffer pH 4.5, 2.7 mg/ml m-cresol (buffer system A), target 10 mg/ml
Protocol: Prior to the solubility measurement of a peptide batch, its purity was determined through UPLC/MS.
Therefore solutions from solid samples were prepared in a buffer systems with a concentration of 10 mg/mL compound based on the previously determined % purity:
Solubility buffer system A) Acetate Buffer pH 4.5, 100 mM sodium acetate trihydrate, 2.7 mg/ml m-Cresol
UPLC-UV was performed after 1 hour of gentle agitation from the supernatant, which was obtained after 15 min of centrifugation at 2500 RCF (relative centrifugal acceleration).
The solubility was determined by the comparison of the UV peak area of 2 μL-injection of a buffered sample diluted 1:10 with a standard curve of a reference peptide with known concentration. The different UV extinction coefficients of sample and reference peptide were calculated based on the different amino acid sequences and considered in the concentration calculation.
Peptide samples were prepared in solubility buffer system A and solubility was assessed as described in Methods.

[4] = Dynamic light scattering (DLS), hydrodynamic radius as surrogate for interaction parameter kD; type: physicochemical
Protocol: For every peptide solution, the hydrodynamic radius Rh and the diffusion constant D (related via the Stokes-Einstein equation) were determined as an average over triplicates. Both parameters were determined at different concentrations (e.g., Rh1 and D1: 1 mg/ml and Rh5 and D5: 5 mg/ml) in the same buffer system. The difference of these parameters between low and high peptide concentration is a surrogate for the DLS interaction parameter kD. Rh5<Rh1 or D5>D1 correspond to kD>0 and therefore to repulsive inter-particle interactions that result in improved physical (or colloidal) stability.
DLS buffer system A) 25 mM acetate buffer pH4.5, 3 mg/mL L-Methionine, 2.7 mg/mL m-cresol, 18 mg/mL Glycerol 85%
DLS Method C: DLS measurements were performed on a DynaPro Plate Reader II (Wyatt Technology, Santa Barbara, Calif., US) and using one of the following black, low volume, and non-treated plates: polystyrene 384 assay plate with clear bottom (Corning, N.Y., US), polystyrene 96 assay plate with clear bottom (Corning, N.Y., US), cyclo olefin polymer (COP) 384 assay plate with clear bottom (Aurora, Mont., US), or polystyrene 384 assay plate with clear bottom (Greiner Bio-One, Germany). The data were processed with the Dynamics software provided by Wyatt Technology. Parameters of the particle size distribution were determined with non-negatively constrained least squares (NNLS) methods using DynaLS algorithms. Measurements were taken at 25° C. with an 830 nm laser light source at an angle of 158°.
The hydrodynamic radius radius Rh of peptide samples was determined at different peptide concentrations (1 mg/ml and 5 mg/ml) in DLS buffer system A using DLS method C as described in Methods as surrogate for the DLS interaction parameter kD.

[5] = molecular target: T1, human GIP receptor (hGIP-R) (Homo sapiens, UniProt P48546); test: cAMP response (HTRF) of HEK-293 cells stably expressing human GIP receptor; type: cell-based; conditions: Table 8; cAMP formation
T1 construct: expressed in transfected cells; host or cells: HEK-293
T1 sequence (P48546 22-466): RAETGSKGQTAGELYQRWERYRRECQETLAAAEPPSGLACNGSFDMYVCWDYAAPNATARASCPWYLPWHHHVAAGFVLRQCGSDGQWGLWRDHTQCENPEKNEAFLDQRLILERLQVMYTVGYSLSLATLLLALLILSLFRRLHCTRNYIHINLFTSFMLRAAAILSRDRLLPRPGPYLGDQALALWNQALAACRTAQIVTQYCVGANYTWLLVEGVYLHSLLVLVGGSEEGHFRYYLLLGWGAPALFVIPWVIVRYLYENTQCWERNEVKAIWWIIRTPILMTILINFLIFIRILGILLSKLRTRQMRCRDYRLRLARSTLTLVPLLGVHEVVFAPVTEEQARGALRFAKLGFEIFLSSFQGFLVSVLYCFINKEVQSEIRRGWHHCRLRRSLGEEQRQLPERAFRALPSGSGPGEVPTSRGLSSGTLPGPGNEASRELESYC
Protocol: (§1) cAMP content of cells was determined using a kit from Cisbio Corp. (cat. no. 62AM4PEJ) based on HTRF (Homogenous Time Resolved Fluorescence). For preparation, cells were split into T175 culture flasks and grown overnight to near confluency in medium (DMEM/10% FBS). Medium was then removed and cells washed with PBS lacking calcium and magnesium, followed by proteinase treatment with accutase (Sigma-Aldrich cat. no. A6964). Detached cells were washed and resuspended in assay buffer (1×HBSS; 20 mM HEPES, 0.1% BSA, 2 mM IBMX) and cellular density determined. They were then diluted to 400000 cells/ml and 25 μl-aliquots dispensed into the wells of 96-well plates. For measurement, 25 μl of test compound in assay buffer was added to the wells, followed by incubation for 30 minutes at room temperature.
(§2) Potencies of peptidic compounds at the GLP-1, glucagon and GIP receptors were determined by exposing cells expressing human glucagon receptor (hGlucagon R), human GIP receptor (hGIP-R) or human GLP-1 receptor (hGLP-1 R) to the listed compounds at increasing concentrations and measuring the formed cAMP as described in Methods.

[6] = molecular target: T2, human GLP-1 receptor (hGLP-1 R) (Homo sapiens, UniProt P43220); test: cAMP response (HTRF) of HEK-293 cells stably expressing human GLP-1 receptor; type: cell-based; conditions: Table 8; cAMP formation
T2 construct: expressed in transfected cells; host or cells: HEK-293
Protocol: as §1, §2

T2 sequence (P43220 24-463): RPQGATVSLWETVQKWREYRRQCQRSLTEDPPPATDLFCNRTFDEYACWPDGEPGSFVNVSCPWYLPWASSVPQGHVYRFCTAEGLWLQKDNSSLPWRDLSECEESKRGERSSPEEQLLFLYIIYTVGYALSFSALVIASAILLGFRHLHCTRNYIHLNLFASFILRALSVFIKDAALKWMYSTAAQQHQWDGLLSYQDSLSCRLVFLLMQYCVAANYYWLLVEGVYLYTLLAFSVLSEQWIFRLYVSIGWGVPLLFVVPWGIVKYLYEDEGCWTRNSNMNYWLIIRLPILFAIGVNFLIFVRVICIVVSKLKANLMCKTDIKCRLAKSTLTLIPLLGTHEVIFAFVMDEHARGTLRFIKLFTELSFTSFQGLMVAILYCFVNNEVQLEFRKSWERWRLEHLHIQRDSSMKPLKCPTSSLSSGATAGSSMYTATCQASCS

| Chemical stability [relative purity loss 28 days 40° C.] (%) at pH 4.5 [1] [%] | Lag time before increase [2] [h] | solubility at 1 h [3] [µg/mL] | Delta Rh [nm] = Rh5 − Rh1 ([4]; DLS buffer system A pH 4.5) [nm] | Rh1 [nm] c= 1 mg/ml ([4]; hydrodynamic radius, 1 mg/ml, DLS buffer system A pH 4.5, DLS method C, 25° C.) [nm] | Rh5 [nm] c = 5 mg/ml ([4]; hydrodynamic radius, 5 mg/ml, DLS buffer system A pH 4.5, DLS method C, 25° C.) [nm] | EC50 [5] [pM] | EC50 [6] [pM] | SMILES |
| --- | --- | --- | --- | --- | --- | --- | --- | --- |
| 6.0 | >45 | > 9200 | −0.1 | 3.1 | 3.0 | 7.9 | – | CCCCCCCCCCCCCCCC(=O)NCCOCCOCC(=O)N[C@@H](CCC(=O)N[C@@H](CCC(=O)NCCCC[C@H](NC(=O)[C@H](CC(C)C)NC(=O)[C@H](CCCCN)NC(=O)[C@H](CO)NC(=O)[C@H](CC(C)C)NC(=O)[C@H](CC(=O)O)NC(=O)[C@H](CO)NC(=O)[C@@H](NC(=O)[C@H](Cc1ccccc1)NC(=O)[C@@H](NC(=O)CNC(=O)[C@H](CCC(N)=O)NC(=O)C(C)(C)NC(=O)[C@@H](N)Cc1c[nH]cn1)[C@@H](C)O)[C@@H](C)O)C(=O)N[C@@H](CCC(=O)O)C(=O)N[C@@H](CCC(=O)O)C(=O)N[C@@H](CCC(N)=O)C(=O)N[C@@H](CCCNC(=N)N)C(=O)N[C@@H](CCC(N)=O)C(=O)NC(C)(C)C(=O)N[C@@H](CCC(=O)O)C(=O)N[C@@H](Cc1ccccc1)C(=O)N[C@H](C(=O)N[C@@H](CCC(=O)O)C(=O)N[C@@H](Cc1c[nH]c2ccccc12)C(=O)N[C@@H](CC(C)C)C(=O)N[C@@H](CCCCN)C(=O)N[C@@H](C)C(=O)N[C@H](C)C(=O)NCC(=O)N[C@@H](Cc1c[nH]cn1)C(=O)N1CCC[C@H]1C(=O)N[C@@H](CO)C(=O)NC(C)(C)C(=O)N[C@@H](CCCCN)C(=O)N1CCC[C@H]1C(=O)N1CCC[C@H]1C(=O)N1CCC[C@H]1C(=O)N[C@@H](CCCCN)C(N)=O)[C@@H](C)CC)C(=O)O)C(=O)O [SEQ ID NO: 19, H-Aib-Q-G-T-F-T-S-D-L-S-K-L-K[gGlu-gGlu-AEEA-Palm]-E-E-Q-R-Q-Aib-E-F-I-E-W-L-K-A-dAla-G-H-P-S-Aib-K-P-P-P-K-NH2] (H-H[Aib]QGTFTSDLSKLK([γGlu-γGlu-AEEA-Palmitoyl])EEQRQ[Aib]EFIEWLKA[dA]GHPS[Aib]KPPPK-NH2) |
| – | >45 | – | – | – | – | – | 2.4 | CCCCCCCCCCCCCCCC(=O)N[C@H](CCC(=O)NCCOCCOCC(=O)N[C@@H](CCC(=O)NCCCC[C@H](NC(=O)[C@H](CC(C)C)NC(=O)[C@H](CCCCN)NC(=O)[C@H](CO)NC(=O)[C@H](CC(C)C)NC(=O)[C@H](CC(=O)O)NC(=O)[C@H](CO)NC(=O)[C@@H](NC(=O)[C@H](Cc1ccccc1)NC(=O)[C@@H](NC(=O)CNC(=O)[C@H](CCC(N)=O)NC(=O)C(C)(C)NC(=O)[C@@H](N)Cc1c[nH]cn1)[C@@H](C)O)[C@@H](C)O)C(=O)N[C@@H](CCC(=O)O)C(=O)N[C@@H](CCCCN)C(=O)N[C@@H](CCC(N)=O)C(=O)N[C@@H](CCCNC(=N)N)C(=O)N[C@@H](CCC(N)=O)C(=O)NC(C)(C)C(=O)N[C@@H](CCC(=O)O)C(=O)N[C@@H](Cc1ccccc1)C(=O)N[C@H](C(=O)N[C@@H](CCC(=O)O)C(=O)N[C@@H](Cc1c[nH]c2ccccc12)C(=O)N[C@@H](CC(C)C)C(=O)N[C@@H](CCCCN)C(=O)N[C@@H](C)C(=O)NCC(=O)NCC(=O)N[C@@H](Cc1c[nH]cn1)C(=O)N1CCC[C@H]1C(=O)N[C@@H](CO)C(=O)NC(C)(C)C(=O)N[C@@H](CCCCN)C(=O)N1CCC[C@H]1C(=O)N1CCC[C@H]1C(=O)N1CCC[C@H]1C(=O)N[C@@H](CCCCN)C(N)=O)[C@@H](C)CC)C(=O)O)CC(=O)O [SEQ ID NO: 20, H-Aib-Q-G-T-F-T-S-D-L-S-K-L-K[gGlu-AEEA-gAAA-Palm]-E-K-Q-R-Q-Aib-E-F-I-E-W-L-K-A-G-G-H-P-S-Aib-K-P-P-P-K-NH2] (H-H[Aib]QGTFTSDLSKLK([γGlu-AEEA-Adipoyl(4R-palmitoylamino)])EKQRQ[Aib]EFIEWLKAGGHPS[Aib]KPPPK-NH2) |
